Reference: patent publication US5494820A, “Streptomyces braegensis strain and its cultivation in a process for producing C9 -desoxo-FK-520” (Pfizer Inc., priority 1994, dated 1996)

What was measured:
human FK-binding protein = assay: Inhibition of rotamase activity of FK-binding protein; type: biochemical
mouse T lymphocytes = assay: Immunosuppressive activity (proliferation of T lymphocytes stimulated with ionomycin plus PMA, tritiated thymidine uptake); type: cell-based, mouse (C57BI/6); details: general statement; no value given
Method: A positive sample in this assay will inhibit-T-cell proliferation, as indicated by reduced tritiated thymidine uptake.
Spleens from C57BI/6 mice are taken under sterile conditions and gently dissociated in ice-cold RPMI 1640 (trademark) culture medium (GIBCO (trademark)) supplemented with 10% heat-inactivated fetal calf serum (GIBCO (trademark)). Cells are pelleted by centrifugation at 1500 rpm for 8 minutes. Contaminating red cells are removed by treating the pellet with ammonium chloride lysing buffer (GIBCO (trademark)) for 2 minutes at 4° C. Cold medium is added and cells are again centrifuged at 1500 rpm for 8 minutes. […]
Purified T lymphocytes are resuspended at 10^6 cells/ml in complete culture medium composed of RPMI 1640 (trademark) medium with 10% heat-inactivated fetal calf serum, […] glutamine, 1 mM sodium pyruvate, 20 µm 2-mercaptoethanol and 50 μg/ml gentamicin. […] The proliferation of T lymphocytes is assessed by measurement of tritiated […] incorporation. […] Radioactivity of filter discs corresponding to individual wells is measured by standard liquid scintillation counting method (Beta plate counter). Mean counts per minute of replicate wells are calculated and the results expressed as percent inhibition of tritiated thymidine uptake (proliferation) as follows: [formula]

[1] = test system: pathogenic filamentus fungal organisms; assay: Antimicrobial activity (general statement)

For `CCC1C=C(C)CC(C)CC(OC)C2OC(O)(CC(=O)N3CCCCC3C(=O)OC(C(C)=CC3CCC(O)C(OC)C3)C(C)C(O)CC1=O)C(C)CC2OC` (stereo not drawn) [compound of the formula I, C9 -desoxo-FK-520], the “inhibition of the rotamase activity of human FK-binding protein” value (human FK-binding protein) was “inhibits the rotamase activity of human FK-binding protein”, the immunosuppressive activity (mouse T lymphocytes) was “has immunosuppressive activity” and the antimicrobial activity [1] was “has antimicrobial activity”.
